Among the data in US20240043420A1, “7-AZAINDOLE COMPOUNDS FOR INHIBITION OF BCR-ABL TYROSINE KINASES” (EnLiven Therapeutics, Inc., priority 2020, published 2024) are IC50 values, retold here.

One experiment relates to K562 cells. As to the kind of experiment: K562 cell proliferation assay (CellTiter-Glo). The following applies: Homo sapiens, K562, 72 h, CellTiter-Glo viability, read-out: Cell Line (IC50, nM) K562. Type of experiment: cell-based. A digest of the protocol:
(§1)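 Cells in IMDM/10% FBS seeded at 2,000 (K562) or 1,500 (HL60) per well, exposed to serially diluted compounds for 72 h at 37 °C, 5% CO2. Viability by CellTiter-Glo luminescence, normalized between DMSO (high) and cell-free media (low) controls.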
For orientation: ATP-based viability assays read luminescence as a measure of living cells.

The test system of another experiment is HL60 cells. The experiment can be described thus: HL60 cell proliferation assay (CellTiter-Glo). In kind it is cell-based. The following applies: Homo sapiens, HL-60, 72 h, CellTiter-Glo viability, read-out: Cell Line (IC50, nM) HL60. In outline: as §1
For the next experiment, the target named is T1, ABL1 (Homo sapiens, UniProt P00519).
T1 construct: purchased Carna Biosciences
The experiment can be described thus: Luminescence-based ABL kinase assay (ADP-Glo, 300 μM ATP). In kind it is biochemical. In outline:
(§2)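 Buffer: 50 mM HEPES pH 7.5, 10 mM MgCl2, 1 mM EGTA, 2 mM DTT, 0.05% BSA. Compound preincubated 30 min at RT with kinase (3.325 nM in enzyme solution), then started with a Peptide 2 (6 μM) and ATP (1.2 mM) solution, both stock levels; 90 min at RT.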
For orientation: ADP-Glo first removes unused ATP, then detects ADP through luciferase.

Another experiment deals with ABL1 (T315I) (Homo sapiens, UniProt P00519, T315I). As to the kind of experiment: Luminescence-based ABL kinase assay (ADP-Glo, 300 μM ATP), T315I mutant. In kind it is biochemical. A digest of the protocol:
as §2

A word on the IC50: it is the concentration that inhibits the measured activity by half.

Structures are written as SMILES.

Take `COc1ccc(F)c(OC)c1-c1c[nH]c2nc(NC(=O)[C@@H]3C[C@@H]3F)ccc12` [Compound 119, (1S,2S)-2-fluoro-N-[3-(3-fluoro-2,6-dimethoxyphenyl)-1H-pyrrolo[2,3-b]pyridin-6-yl]cyclopropane-1-carboxamide]: the IC50 in the experiment on K562 cells was 32.2 nM; in the experiment on HL60 cells, above 10000 nM; against ABL1, 4.67 nM; at ABL1 (T315I), 2.57 nM.

With `COc1ccccc1-c1c[nH]c2nc(NC(=O)NCCN3CCNCC3)ccc12` [Compound 121, 3-[3-(2-methoxyphenyl)-1H-pyrrolo[2,3-b]pyridin-6-yl]-1-[2-(piperazin-1-yl)ethyl]urea], the IC50 in the experiment with K562 cells was 365 nM; in the experiment on HL60 cells, above 10000 nM; against ABL1, 31.8 nM; against ABL1 (T315I), 5.98 nM.

On to `COc1ccccc1-c1c[nH]c2nc(NC(=O)NCCOCCN(C)C)ccc12` [Compound 124, 3-[2-[2-(dimethylamino)ethoxy]ethyl]-1-[3-(2-methoxyphenyl)-1H-pyrrolo[2,3-b]pyridin-6-yl]urea], for which the IC50 is 359 nM in the experiment with K562 cells, above 10000 nM in the experiment with HL60 cells, 317 nM at ABL1 and 30.6 nM at ABL1 (T315I).

Regarding `COc1ncc(F)c(OC)c1-c1c[nH]c2nc(NC(=O)[C@H]3C[C@H]3F)ccc12` [Compound 125, (1R,2R)-2-fluoro-N-[3-(5-fluoro-2,4-dimethoxypyridin-3-yl)-1H-pyrrolo[2,3-b]pyridin-6-yl]cyclopropane-1-carboxamide], the IC50 in the experiment with K562 cells is 104 nM; in the experiment with HL60 cells it was above 10000 nM; against ABL1, 22.2 nM; against ABL1 (T315I) it was 39.5 nM.

In the case of `O=C(Nc1ccc2c(-c3cccnc3OCC(F)(F)F)c[nH]c2n1)[C@@H]1C[C@@H]1F` [Compound 126, (1S,2S)-2-fluoro-N-(3-(2-(2,2,2-trifluoroethoxy)pyridin-3-yl)-1H-pyrrolo[2,3-b]pyridin-6-yl)cyclopropane-1-carboxamide], the IC50 in the experiment with K562 cells was 2010 nM; with HL60 cells, above 10000 nM; against ABL1, 2580 nM; against ABL1 (T315I) it was 3860 nM.

Take `O=C(Nc1ccc2c(-c3c(F)cccc3OC3CC3)c[nH]c2n1)[C@@H]1C[C@@H]1F` [Compound 127, (1S,2S)—N-[3-(2-cyclopropoxy-6-fluorophenyl)-1H-pyrrolo[2,3-b]pyridin-6-yl]-2-fluorocyclopropane-1-carboxamide]: the IC50 is 100 nM in the experiment on K562 cells, above 10000 nM with HL60 cells, 22.1 nM against ABL1 and 0.745 nM against ABL1 (T315I).

Turning to `CNCCCNC(=O)Nc1ccc2c(-c3c(OC)cccc3OC)c[nH]c2n1` [Compound 130, 1-[3-(2,6-dimethoxyphenyl)-1H-pyrrolo[2,3-b]pyridin-6-yl]-3-[3-(methylamino)propyl]urea], the half-inhibitory concentration (IC50) with K562 cells was 169 nM; in the experiment with HL60 cells, above 10000 nM; against ABL1, 67 nM; against ABL1 (T315I), 33.7 nM.

Regarding `COc1cccc(OC)c1-c1c[nH]c2nc(NC(=O)NCCN(C)C)ccc12` [Compound 132, 1-[3-(2,6-dimethoxyphenyl)-1H-pyrrolo[2,3-b]pyridin-6-yl]-3-[2-(dimethylamino)ethyl]urea], the IC50 in the experiment on K562 cells is 234 nM; with HL60 cells it was above 10000 nM; against ABL1, 143 nM; at ABL1 (T315I), 97.5 nM.

In the case of `O=C(NCCN1CCNCC1)Nc1ccc2c(-c3ccccc3OC3CC3)n[nH]c2n1` [Compound 136, 3-[3-(2-cyclopropoxyphenyl)-1H-pyrazolo[3,4-b]pyridin-6-yl]-1-[2-(piperazin-1-yl)ethyl]urea], the IC50 in the experiment on K562 cells is 333 nM; in the experiment with HL60 cells it was above 10000 nM; at ABL1 it was 27.4 nM; against ABL1 (T315I) it was 54.5 nM.

Turning to `COc1ccnc(OC)c1-c1c[nH]c2nc(NC(=O)NCCN3CCNCC3)ccc12` [Compound 137, 3-[3-(2,4-dimethoxypyridin-3-yl)-1H-pyrrolo[2,3-b]pyridin-6-yl]-1-[2-(piperazin-1-yl)ethyl]urea], the IC50 with K562 cells is 733 nM; in the experiment on HL60 cells, above 10000 nM; against ABL1 it was 36 nM; at ABL1 (T315I), 40.6 nM.
